Assay results published in publication PMC9689838, “Screening and Identification of Novel Soluble Epoxide Hydrolase Inhibitors from Corn Gluten Peptides” (Foods, 2022).
Where two headings read alike, the source gives them in different places. Where a SMILES comes first, the peptide text is derived from it.

Legend:
sEH = details: read-out: IC50, sEH inhibitory activity, cited from earlier work
[1] = molecular target: T1, Human soluble epoxide hydrolase (sEH) (Homo sapiens, UniProt P34913); assay: sEH inhibitory activity assay with fluorescent substrate PHOME; format: biochemical; details: 10 µM PHOME, 40 min, mean ± SD n = 3; for inhibition at 100 µM: peptide 100 µM final, 62.5 ng/mL sEH, 37 °C; for IC50: synthesized peptides 20-100 µM
T1 construct: purchased Cayman Chemical (Ann Arbor, MI, USA)
T1 sequence (P34913 1-555): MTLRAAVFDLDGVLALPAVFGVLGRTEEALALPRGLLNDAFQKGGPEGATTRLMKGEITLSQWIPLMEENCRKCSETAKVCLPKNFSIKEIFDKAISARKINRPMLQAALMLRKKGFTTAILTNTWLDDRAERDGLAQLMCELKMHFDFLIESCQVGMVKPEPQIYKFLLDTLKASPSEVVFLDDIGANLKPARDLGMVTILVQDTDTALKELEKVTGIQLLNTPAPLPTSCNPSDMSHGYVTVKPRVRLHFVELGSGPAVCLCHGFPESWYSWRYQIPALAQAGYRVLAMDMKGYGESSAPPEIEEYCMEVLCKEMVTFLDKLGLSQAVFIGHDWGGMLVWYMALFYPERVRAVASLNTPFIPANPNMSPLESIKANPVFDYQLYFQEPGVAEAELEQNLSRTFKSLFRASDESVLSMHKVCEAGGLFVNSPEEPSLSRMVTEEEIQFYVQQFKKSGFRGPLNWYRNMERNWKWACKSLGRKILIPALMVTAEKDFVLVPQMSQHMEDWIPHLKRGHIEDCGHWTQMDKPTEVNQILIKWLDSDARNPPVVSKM
Method: The effects of the concentrations of the enzyme, substrate, and the hydrolysis time of sEH on PHOME were determined according to the methods reported previously. […] After incubating at 37 °C for 5 to 50 min, the fluorescence intensity was measured at an emission wavelength of 465 nm and an excitation wavelength of 330 nm. Bis-Tris-HCl instead of PHOME was used as the blank control. The reaction rate of the system was calculated as follows:(1) The reaction rate (RFU/min)=St - Ct/t where St (RFU) and Ct (RFU) represent the fluorescence intensity of the sample and blank group at t min, respectively. The t (min) represents the reaction time.
The sEH inhibitory activities of peptides were determined as above described. Briefly, 130 µL of 62.5 ng/mL human sEH solution (final concentrations, dissolved in 25 mM bis-Tris-HCl containing 0.1% BSA, pH 7.0) and 20 µL of peptides (final concentrations: synthesized peptides, 20, 40, 60, 80, and 100 µM; corn gluten peptides, 1, 2, 3, 4, and 5 mg/mL, respectively) were added to 96-well plate followed by adding 50 µL of 10 µM PHOME solution (final concentration, dissolved in 25 mM bis-Tris-HCl containing 0.1% BSA, pH 7.0). After incubating at 37 °C for 5 to 40 min, the fluorescence intensity of the mixture at an emission wavelength of 465 nm and an excitation wavelength of 330 nm was determined. […] The sEH inhibitory activity was calculated as follows:(2) sEH inhibitory activity (%)=C40 - S40/C40 - C0×100% where C40 (RFU) and C0 (RFU) represented the fluorescence intensity of the blank control group at 40 and 0 min, respectively. S40 (RFU) represented the fluorescence intensity of the sample group at 40 min.

[2] = isolated from Capsicum chinense

Question: Which IC50 (sEH) does the source give for `C[C@@H]1CC[C@]2(C(=O)O)CC[C@]3(C)C(=CC[C@@H]4[C@@]5(C)CC(=O)[C@H](O)C(C)(C)[C@@H]5CC[C@]43C)[C@@H]2[C@]1(C)O` [2-oxopomolic acid] here?
Answer: 11.4 ± 2.7 µM

Question: For `N[C@@H](Cc1c[nH]c2ccccc12)C(=O)N[C@@H](CCC(=O)O)C(=O)N[C@@H](Cc1ccc(O)cc1)C(=O)O` [WEY] (H-Trp-Glu-Tyr-OH), which inhibition at 100 µM [1] is on record?
Answer: 70 ± 6.25%

Question: What about the IC50 [1] of the same compound?
Answer: 55.4 ± 1.55 µM

Question: With `N[C@@H](Cc1c[nH]c2ccccc12)C(=O)N[C@@H](Cc1c[nH]c2ccccc12)C(=O)N[C@@H](Cc1ccc(O)cc1)C(=O)O` [WWY] (H-Trp-Trp-Tyr-OH) as the compound, how does the inhibition at 100 µM [1] read?
Answer: 55.1 ± 2.38%

Question: What about the IC50 [1] of the same compound?
Answer: 68.8 ± 7.72 µM

Question: Which results are given for `N[C@@H](Cc1c[nH]c2ccccc12)C(=O)N[C@@H](Cc1ccc(O)cc1)C(=O)N[C@@H](Cc1c[nH]c2ccccc12)C(=O)O` [WYW] (H-Trp-Tyr-Trp-OH)?
Answer: inhibition at 100 µM [1]: 60.3 ± 5.6%; IC50 [1]: 70.7 ± 9.9 µM

Question: With `N[C@@H](Cc1ccc(O)cc1)C(=O)N[C@@H](Cc1ccccc1)C(=O)N[C@@H](Cc1c[nH]c2ccccc12)C(=O)O` [YFW] (H-Tyr-Phe-Trp-OH) as the compound, how does the inhibition at 100 µM [1] read?
Answer: 57.4 ± 7.62%

Question: What about the IC50 [1] of the same compound?
Answer: 96 ± 7.5 µM

Question: Which inhibition at 100 µM [1] does the source give for `N[C@@H](Cc1ccc(O)cc1)C(=O)N[C@@H](Cc1ccccc1)C(=O)N[C@@H](Cc1ccc(O)cc1)C(=O)O` [YFY] (H-Tyr-Phe-Tyr-OH) here?
Answer: 53 ± 3.09%

Question: And the IC50 [1]?
Answer: 94.1 ± 12.9 µM

Question: For `COc1cc(CNC(=O)CCCC/C=C/C(C)C)ccc1O` [capsaicin], which IC50 (sEH; [2]) is on record?
Answer: 5.6 ± 1.2 µM

Question: For `C[C@H]1[C@H](C)CC[C@]2(C(=O)O)CC[C@]3(C)C(=CC[C@@H]4[C@@]5(C)C[C@@H](O)[C@H](O)C(C)(C)[C@@H]5CC[C@]43C)[C@H]12` [corosolic acid], which IC50 (sEH) is on record?
Answer: 51.3 ± 4.9 µM

Question: Which IC50 (sEH; [2]) does the source give for `COc1cc(CNC(=O)CCCCCCC(C)C)ccc1O` [dihydrocapsaicin] here?
Answer: 7.3 ± 0.7 µM

Question: Which IC50 (sEH; from Scutellaria baicalensis) does the source give for `CC(C)CNC(=O)/C=C/CCc1ccc2c(c1)OCO2` [dihydropiperlonguminine] here?
Answer: 7.83 ± 0.52 µM

Question: Which IC50 (sEH; from Scutellaria baicalensis) does the source give for `CC(C)C(=O)Nc1ccc([N+](=O)[O-])c(C(F)(F)F)c1` [flutamide] here?
Answer: 6.32 ± 0.31 µM

Question: Which IC50 (sEH) does the source give for `O=c1c(O)c(-c2ccc(O)cc2)oc2cc(O)cc(O)c12` [kaempferol] here?
Answer: 31.3 ± 2.6 µM

Question: With `CCCCC/C=C/C=C/C(=O)NCC(C)C` [pellitorine] as the compound, how does the IC50 (sEH; from Scutellaria baicalensis) read?
Answer: 93.7 ± 4.52 µM

Question: Which IC50 (sEH; from Scutellaria baicalensis) does the source give for `CC(C)CNC(=O)/C=C/C=C/c1ccc2c(c1)OCO2` [piperlonguminine] here?
Answer: 6.06 ± 0.12 µM

Question: For `O=c1c(O[C@H]2OC[C@@H](O)[C@@H](O)[C@@H]2O)c(-c2ccc(O)c(O)c2)oc2cc(O)cc(O)c12` [quercetin-3-O-arabinoside], which IC50 (sEH) is on record?
Answer: 39.3 ± 3.4 µM

Question: With `O=c1c(O)c(-c2ccc(O)c(O)c2)oc2cc(O)cc(O)c12` [quercetin] as the compound, how does the IC50 (sEH) read?
Answer: 22.5 ± 0.9 µM

Question: With `C[C@H]1[C@H](C)CC[C@]2(C(=O)O)CC[C@]3(C)C(=CC[C@@H]4[C@@]5(C)CC[C@H](O)C(C)(C)[C@@H]5CC[C@]43C)[C@H]12` [ursolic acid] as the compound, how does the IC50 (sEH) read?
Answer: 84.5 ± 9.5 µM
